According to ChEMBL document CHEMBL4043168, “The design and SAR of a novel series of 2-aminopyridine based LRRK2 inhibitors” (Bioorg Med Chem Lett, 2017):

Columns and labels:
MDR1 = assay: Apparent permeability in MDCK cells harboring MDR1; assay type: ADME, cell-based, Canis lupus familiaris; settings: dog
[1] = target: Tyrosine-protein kinase ABL2 (Homo sapiens) (UniProt P42684); assay: Inhibition of ARG labeling at […] (LMTGDTYTAHAGAKFPIK) in human PBMC at 1 uM
[2] = target: Cyclin-dependent kinase 7 (Homo sapiens) (UniProt P50613); assay: Inhibition of CDK7 labeling at conserved Lys2 (DLKPNNLLLDENGVLK) in human PBMC at 1 uM
[3] = target: T1, Tyrosine-protein kinase JAK3 (Homo sapiens) (UniProt P52333); assay: Inhibition of JAK3 domain2 activation Loop (IADFGLAKLLPLDKDYYVVR) in human PBMC at 1 uM
T1 sequence (whole entry): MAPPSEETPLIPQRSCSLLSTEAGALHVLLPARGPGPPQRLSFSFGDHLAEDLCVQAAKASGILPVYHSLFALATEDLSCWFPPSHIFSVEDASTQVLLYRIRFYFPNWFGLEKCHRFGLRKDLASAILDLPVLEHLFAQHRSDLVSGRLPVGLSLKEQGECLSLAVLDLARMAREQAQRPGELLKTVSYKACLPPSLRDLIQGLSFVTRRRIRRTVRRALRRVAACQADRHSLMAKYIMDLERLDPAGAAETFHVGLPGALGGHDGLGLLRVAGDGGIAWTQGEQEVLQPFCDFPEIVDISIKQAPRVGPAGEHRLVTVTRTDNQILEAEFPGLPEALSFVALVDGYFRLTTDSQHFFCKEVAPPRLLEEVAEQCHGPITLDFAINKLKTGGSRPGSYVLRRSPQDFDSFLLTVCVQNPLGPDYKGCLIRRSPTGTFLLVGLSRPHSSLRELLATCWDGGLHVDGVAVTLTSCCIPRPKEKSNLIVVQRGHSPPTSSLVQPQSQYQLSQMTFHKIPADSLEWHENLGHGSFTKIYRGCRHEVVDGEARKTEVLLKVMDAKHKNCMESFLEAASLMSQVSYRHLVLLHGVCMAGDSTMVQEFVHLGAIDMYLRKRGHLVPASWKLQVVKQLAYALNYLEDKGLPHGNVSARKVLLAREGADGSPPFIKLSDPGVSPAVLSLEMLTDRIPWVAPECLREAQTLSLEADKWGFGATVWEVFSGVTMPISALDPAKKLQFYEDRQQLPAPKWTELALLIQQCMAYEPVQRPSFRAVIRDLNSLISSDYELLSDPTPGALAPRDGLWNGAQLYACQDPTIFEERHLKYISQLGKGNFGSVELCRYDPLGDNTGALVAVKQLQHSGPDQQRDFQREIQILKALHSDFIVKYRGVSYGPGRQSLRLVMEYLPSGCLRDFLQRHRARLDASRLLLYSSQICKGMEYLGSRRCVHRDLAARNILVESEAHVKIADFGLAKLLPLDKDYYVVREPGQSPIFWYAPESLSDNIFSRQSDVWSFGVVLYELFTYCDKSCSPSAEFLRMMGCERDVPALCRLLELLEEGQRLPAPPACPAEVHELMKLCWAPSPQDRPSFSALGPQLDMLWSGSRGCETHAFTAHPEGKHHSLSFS

[4] = target: Ribosomal protein S6 kinase alpha-1 (Homo sapiens) (UniProt Q15418); assay: Inhibition of RSK1 domain2 conserved Lys2 (DLKPSNILYVDESGNPECLR) in human PBMC at 1 uM
[5] = target: Calcium/calmodulin-dependent protein kinase type II subunit delta (Homo sapiens) (UniProt Q13557); assay: Inhibition of CaMK2d labeling at conserved Lys2 (DLKPENLLLASK) in human PBMC at 0.1 uM
[6] = target: Serine/threonine-protein kinase Chk2 (Homo sapiens) (UniProt O96017); assay: Inhibition of CHK2 labeling at conserved Lys1 (VAIKIISK) in human PBMC at 0.1 uM
[7] = target: T2, Serine/threonine-protein kinase 4 (Homo sapiens) (UniProt Q13043); assay: Inhibition of MST1 conserved Lys1 ETGQIVAIKQVPVESDLQEIIK in human PBMC at 0.1 uM
T2 sequence (whole entry): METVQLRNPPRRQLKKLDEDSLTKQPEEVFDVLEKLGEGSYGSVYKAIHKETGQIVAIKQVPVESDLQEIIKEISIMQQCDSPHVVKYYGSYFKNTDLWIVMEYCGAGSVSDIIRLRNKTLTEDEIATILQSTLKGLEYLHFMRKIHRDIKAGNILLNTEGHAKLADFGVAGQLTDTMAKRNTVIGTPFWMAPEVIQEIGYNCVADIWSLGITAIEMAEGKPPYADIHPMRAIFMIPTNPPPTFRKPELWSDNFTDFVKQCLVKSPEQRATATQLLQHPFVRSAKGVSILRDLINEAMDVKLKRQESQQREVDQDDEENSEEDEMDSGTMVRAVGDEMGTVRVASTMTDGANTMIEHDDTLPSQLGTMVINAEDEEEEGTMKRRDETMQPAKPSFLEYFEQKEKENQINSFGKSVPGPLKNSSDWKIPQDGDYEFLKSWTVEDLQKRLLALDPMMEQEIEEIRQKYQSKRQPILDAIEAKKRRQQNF

[8] = target: Ribosomal protein S6 kinase alpha-3 (Homo sapiens) (UniProt P51812); assay: Inhibition of RSK2 domain1 ATP binding site (VLGQGSFGKVFLVK) in human PBMC at 0.1 uM
[9] = target: Serine/threonine-protein kinase WNK1 (Homo sapiens) (UniProt Q9H4A3); assay: Inhibition of Wnk1 activation Loop (IGDLGLATLKR) in human PBMC at 0.1 uM; settings: pooled result: one value given for 4 cell lines, strains, targets or settings

Cyclin-dependent kinase 7 (Homo sapiens), sequence (P50613 whole entry, the tested form may be a part): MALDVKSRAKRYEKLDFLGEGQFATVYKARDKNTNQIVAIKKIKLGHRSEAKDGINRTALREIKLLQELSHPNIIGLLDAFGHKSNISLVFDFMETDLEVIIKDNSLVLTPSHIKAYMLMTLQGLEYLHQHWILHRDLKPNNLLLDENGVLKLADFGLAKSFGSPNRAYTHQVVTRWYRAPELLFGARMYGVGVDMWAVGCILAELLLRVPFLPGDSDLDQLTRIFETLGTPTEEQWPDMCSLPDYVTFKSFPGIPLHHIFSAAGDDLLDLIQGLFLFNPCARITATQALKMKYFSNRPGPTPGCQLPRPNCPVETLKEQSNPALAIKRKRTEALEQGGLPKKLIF
Ribosomal protein S6 kinase alpha-3 (Homo sapiens), sequence (P51812 whole entry, the tested form may be a part): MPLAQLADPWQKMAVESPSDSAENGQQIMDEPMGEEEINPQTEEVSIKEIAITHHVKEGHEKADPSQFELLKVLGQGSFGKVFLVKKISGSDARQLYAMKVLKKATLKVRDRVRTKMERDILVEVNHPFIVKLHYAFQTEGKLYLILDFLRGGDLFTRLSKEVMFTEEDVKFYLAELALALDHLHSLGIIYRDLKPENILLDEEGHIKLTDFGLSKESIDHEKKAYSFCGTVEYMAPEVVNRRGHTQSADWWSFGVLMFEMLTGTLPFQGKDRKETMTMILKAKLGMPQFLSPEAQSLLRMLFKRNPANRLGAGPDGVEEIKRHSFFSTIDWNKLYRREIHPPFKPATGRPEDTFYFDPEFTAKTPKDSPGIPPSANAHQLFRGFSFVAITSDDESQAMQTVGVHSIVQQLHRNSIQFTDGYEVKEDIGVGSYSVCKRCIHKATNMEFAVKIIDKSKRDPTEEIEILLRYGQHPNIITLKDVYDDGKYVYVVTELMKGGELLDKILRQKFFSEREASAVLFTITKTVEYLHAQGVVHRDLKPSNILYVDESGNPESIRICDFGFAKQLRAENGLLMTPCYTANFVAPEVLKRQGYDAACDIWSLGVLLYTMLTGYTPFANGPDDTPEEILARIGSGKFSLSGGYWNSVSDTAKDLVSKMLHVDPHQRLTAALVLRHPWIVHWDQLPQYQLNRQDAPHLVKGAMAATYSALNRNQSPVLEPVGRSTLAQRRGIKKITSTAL
Ribosomal protein S6 kinase alpha-1 (Homo sapiens), sequence (Q15418 whole entry, the tested form may be a part): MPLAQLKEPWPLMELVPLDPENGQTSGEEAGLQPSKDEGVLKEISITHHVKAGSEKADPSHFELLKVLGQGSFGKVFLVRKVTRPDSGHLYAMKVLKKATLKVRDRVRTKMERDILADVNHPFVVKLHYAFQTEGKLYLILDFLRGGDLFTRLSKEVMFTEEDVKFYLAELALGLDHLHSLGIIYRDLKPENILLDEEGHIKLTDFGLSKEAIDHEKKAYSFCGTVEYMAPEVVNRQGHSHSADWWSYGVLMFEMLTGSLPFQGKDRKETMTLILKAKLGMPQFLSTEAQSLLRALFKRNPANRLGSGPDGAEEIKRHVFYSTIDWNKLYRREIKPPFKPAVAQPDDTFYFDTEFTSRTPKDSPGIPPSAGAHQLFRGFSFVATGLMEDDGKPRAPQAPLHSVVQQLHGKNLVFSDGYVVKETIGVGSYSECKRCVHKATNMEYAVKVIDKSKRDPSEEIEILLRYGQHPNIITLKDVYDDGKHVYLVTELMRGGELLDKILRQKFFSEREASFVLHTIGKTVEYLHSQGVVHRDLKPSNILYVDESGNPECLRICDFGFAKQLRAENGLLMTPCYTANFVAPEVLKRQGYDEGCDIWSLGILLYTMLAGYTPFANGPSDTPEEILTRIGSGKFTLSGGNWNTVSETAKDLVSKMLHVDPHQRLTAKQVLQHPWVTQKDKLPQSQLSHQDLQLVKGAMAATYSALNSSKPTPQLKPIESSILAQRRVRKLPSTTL
Tyrosine-protein kinase ABL2 (Homo sapiens), sequence (P42684 whole entry): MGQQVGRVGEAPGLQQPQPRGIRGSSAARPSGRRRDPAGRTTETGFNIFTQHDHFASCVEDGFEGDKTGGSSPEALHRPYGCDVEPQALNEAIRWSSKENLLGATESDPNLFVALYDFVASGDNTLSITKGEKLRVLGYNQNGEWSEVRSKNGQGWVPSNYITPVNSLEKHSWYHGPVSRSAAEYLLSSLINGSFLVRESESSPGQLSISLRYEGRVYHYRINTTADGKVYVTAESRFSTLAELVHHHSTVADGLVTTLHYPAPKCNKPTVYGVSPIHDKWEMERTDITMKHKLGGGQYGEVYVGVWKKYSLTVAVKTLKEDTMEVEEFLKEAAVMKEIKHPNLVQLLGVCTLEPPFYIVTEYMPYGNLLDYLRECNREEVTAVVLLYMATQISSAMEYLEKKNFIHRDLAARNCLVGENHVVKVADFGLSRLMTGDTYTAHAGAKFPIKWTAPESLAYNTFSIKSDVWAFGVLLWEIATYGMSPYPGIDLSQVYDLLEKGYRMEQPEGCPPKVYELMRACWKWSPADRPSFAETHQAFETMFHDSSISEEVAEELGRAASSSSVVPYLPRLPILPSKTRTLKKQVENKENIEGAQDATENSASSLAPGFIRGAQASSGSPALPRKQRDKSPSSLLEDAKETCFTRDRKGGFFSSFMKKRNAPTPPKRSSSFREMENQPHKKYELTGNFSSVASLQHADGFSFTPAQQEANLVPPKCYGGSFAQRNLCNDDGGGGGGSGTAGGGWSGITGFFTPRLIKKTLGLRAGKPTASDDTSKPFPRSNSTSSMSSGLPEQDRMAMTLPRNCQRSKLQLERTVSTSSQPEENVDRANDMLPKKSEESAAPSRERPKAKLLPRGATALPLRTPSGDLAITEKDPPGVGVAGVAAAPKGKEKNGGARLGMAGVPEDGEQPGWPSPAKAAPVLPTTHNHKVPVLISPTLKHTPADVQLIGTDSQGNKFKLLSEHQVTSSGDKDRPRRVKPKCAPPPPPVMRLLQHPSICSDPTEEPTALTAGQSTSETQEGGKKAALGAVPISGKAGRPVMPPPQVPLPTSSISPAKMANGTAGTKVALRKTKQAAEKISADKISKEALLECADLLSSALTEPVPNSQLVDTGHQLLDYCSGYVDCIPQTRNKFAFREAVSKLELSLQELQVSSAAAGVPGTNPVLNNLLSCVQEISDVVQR
Serine/threonine-protein kinase Chk2 (Homo sapiens), sequence (O96017 whole entry): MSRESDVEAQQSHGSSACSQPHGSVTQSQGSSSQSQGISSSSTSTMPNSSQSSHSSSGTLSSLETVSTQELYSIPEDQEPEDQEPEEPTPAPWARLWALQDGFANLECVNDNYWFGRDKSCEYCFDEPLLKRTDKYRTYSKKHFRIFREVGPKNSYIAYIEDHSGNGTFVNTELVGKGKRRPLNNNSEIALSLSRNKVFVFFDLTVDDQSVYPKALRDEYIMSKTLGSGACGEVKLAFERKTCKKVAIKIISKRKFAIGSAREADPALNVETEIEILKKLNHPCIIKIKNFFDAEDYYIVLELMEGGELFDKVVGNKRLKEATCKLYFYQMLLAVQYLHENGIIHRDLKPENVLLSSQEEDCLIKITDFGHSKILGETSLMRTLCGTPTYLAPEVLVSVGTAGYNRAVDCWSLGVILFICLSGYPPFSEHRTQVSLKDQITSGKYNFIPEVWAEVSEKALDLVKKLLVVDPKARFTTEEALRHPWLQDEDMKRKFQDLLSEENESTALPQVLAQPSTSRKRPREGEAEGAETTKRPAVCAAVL
Calcium/calmodulin-dependent protein kinase type II subunit delta (Homo sapiens), sequence (Q13557 whole entry): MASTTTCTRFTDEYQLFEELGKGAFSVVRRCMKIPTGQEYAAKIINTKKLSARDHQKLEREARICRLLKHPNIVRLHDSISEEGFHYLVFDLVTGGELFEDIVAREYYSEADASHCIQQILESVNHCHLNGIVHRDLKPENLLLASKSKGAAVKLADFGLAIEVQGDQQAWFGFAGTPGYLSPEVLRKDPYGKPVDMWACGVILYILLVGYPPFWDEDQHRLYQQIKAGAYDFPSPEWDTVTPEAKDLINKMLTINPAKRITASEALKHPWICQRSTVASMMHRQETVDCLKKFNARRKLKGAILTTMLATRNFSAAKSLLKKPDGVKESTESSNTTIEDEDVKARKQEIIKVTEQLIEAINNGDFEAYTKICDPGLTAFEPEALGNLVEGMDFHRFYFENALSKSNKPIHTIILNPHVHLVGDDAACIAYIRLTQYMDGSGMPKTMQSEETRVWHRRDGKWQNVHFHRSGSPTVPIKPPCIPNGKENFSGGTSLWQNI

SMILES: CC(C)n1cc(-c2cc(-c3ccc(CN4CCOCC4)cc3)cnc2N)nn1
- Papp (MDR1): 26.3 ×10⁻⁶ cm/s
- inhibition [1]: 34.8%
- inhibition [2]: -5.5%
- inhibition [3]: 7.8%
- inhibition [4]: -6%
- inhibition [5]: -7.5%
- inhibition [6]: 9.7%
- inhibition [7]: -6.6%
- inhibition [8]: 3.1%
- inhibition [9]: 21.4%
